Experimental data published in patent publication US20240360177A1, “PEPTIDES WITH ANTIMICROBIAL ACTIVITIES” (priority 2021, published 2024).
≈ marks a conversion by molar mass, not a printed value. Like-named read-outs stand apart in the source and are kept apart here. Starred links: 1 amine or outer side, 2 acyl side, 3 side chain; linkers in the order of their positions; H or OH if unused. Non-standard residues stand in square brackets, D forms with d. Residues, ends and D or L forms follow the SMILES beside them. NH(CH2)9CO = O=C(CCCCCCCCCN[*:1])[*:2]; Aoc = NCCCCCCCC(=O)O

Key:
C. glabrata = details: 24 h
[1] = tested on: Mycobacterium smegmatis ATCC 700084; format: cell-based; details: ATCC 700084, 48 h
Fusarium spp. = details: 48 h
C. dubliniensis = details: 24 h
C. krusei = details: 24 h
[2] = tested on: Salmonella senftenberg CDC 127; format: cell-based
[3] = tested on: Trichophyton rubrum ATCC MYA-4438
C. gattii = details: 72 h
[4] = tested on: Epidermophyton floccosum ATCC 52066
C. tropicalis = details: 24 h
[5] = tested on: Mycobacterium fortuitum ATCC 110; assay: Antibacterial broth microdilution MIC, Mycobacterium fortuitum; format: cell-based; details: 48 hrs
[6] = tested on: Microsporum gypseum ATCC 14683
C. parapsilosis = details: 24 h
[7] = tested on: Escherichia coli ATCC 25922; format: cell-based
[8] = tested on: Staphylococcus aureus ATCC 29213; format: cell-based
[9] = tested on: Pseudomonas aeruginosa ATCC 27853; format: cell-based
in vitro [10] = details: human
C. albicans = details: 24 h
[11] = tested on: Shigella sonnei MMX 10772; assay: Antibacterial broth microdilution MIC, Shigella sonnei; format: cell-based; details: CAMHB
[12] = tested on: Klebsiella pneumoniae ATCC 13883; format: cell-based
C. neoformans = details: 72 h
C. auris = details: 24 h
Scedosporium spp. = details: 72 h
[13] = Subacute toxicity in CD-1 mice; format: in vivo; details: daily IP for 7 days
Experimental: In the subacute toxicity study, groups of CD-1 male or female mice were administered seven consecutive daily intraperitoneal doses (n=3 per dose) of the peptides (SEQ ID NO: 7, SEQ ID NO: 29, SEQ ID NO: 53) dissolved in normal saline for injection. Each peptide was evaluated at 2 to 3 dose levels ranging from 2.5 to 7.5 mg/kg/day. Mice were weighed at least once daily and observed at least twice daily for any abnormal findings and determination of overall health. At 24 hrs after the last dose, mice were humanely euthanized, with blood collected through cardiac puncture into K2EDTA microtainers to assess hematological parameters. All three peptides were tolerated at the highest dose evaluated (7.5 mg/kg/day) for 7 days.

[14] = Acute toxicity in CD-1 mice; details: both sexes, mouse, in vivo
Experimental: Acute toxicity and subacute toxicity of ACPs were tested in CD-1 mice. In the acute toxicity study, groups of CD-1 male or female mice were administered single intravenous or intraperitoneal escalating doses (n=2-3 per dose) of the peptides dissolved in normal saline for injection or in phosphate buffered saline. The intravenous dose was administered via tail vein with a slow push over 15-20 seconds. Doses were escalated based on tolerability.

[15] = mice
in vitro [16] = details: human, human serum, full strength
Coccidioides species = details: N = 10 strains; 48-72 hrs; >50% inhibition
[17] = EC50 cytotoxicity in HepG2, intracellular ATP assay

Compound | MIC C. glabrata (C. glabrata) [µg/mL] | MIC Mycobacterium smegmatis [1] [µg/mL] | MIC Range Fusarium spp. (Fusarium spp.) [µg/mL] | MIC C. dubliniensis (C. dubliniensis) [µg/mL] | MIC C. krusei (C. krusei) [µg/mL] | MIC Salmonella senftenberg [2] [µg/mL] | MIC Trichophyton rubrum [3] [µg/mL] | MIC C. gattii (C. gattii) [µg/mL] | MIC Epidermophyton floccosum [4] [µg/mL] | MIC C. tropicalis (C. tropicalis) [µg/mL] | MIC Mycobacterium fortuitum [5] [µg/mL] | MIC Microsporum gypseum [6] [µg/mL] | MIC C. parapsilosis (C. parapsilosis) [µg/mL] | MIC Escherichia coli [7] [µg/mL] | MIC Staphylococcus aureus [8] [µg/mL] | MIC Pseudomonas aeruginosa [9] [µg/mL] | EC50 (in vitro [10]; [17]) [µg/mL] | MIC C. albicans (C. albicans) [µg/mL] | MIC C. neoformans (C. neoformans) [µg/mL] | MIC C. auris (C. auris) [µg/mL] | further results
N=C(N)NCCC[C@@H](N)C(=O)N[C@@H](CCCNC(=N)N)C(=O)N[C@H](CCCNC(=N)N)C(=O)NCC(=O)N[C@H](CCCNC(=N)N)C(=O)N[C@@H](CCCNC(=N)N)C(=O)N[C@H](CCCNC(=N)N)C(=O)NCC(=O)N[C@H](CCCNC(=N)N)C(=O)N[C@@H](CCCNC(=N)N)C(=O)N[C@H](CCCNC(=N)N)C(=O)N[C@@H](CCCNC(=N)N)C(=O)NCC(=O)N[C@H](CCCNC(=N)N)C(=O)N[C@@H](CCCNC(=N)N)C(=O)N[C@H](CCCNC(=N)N)C(=O)N[C@@H](CCCNC(=N)N)C(=O)N[C@@H](CS)C(=O)O [SEQ ID NO: 2, rRr-G-rRr-G-rRrR-G-rRrR-Cys] (H-[dR]R[dR]G[dR]R[dR]G[dR]R[dR]RG[dR]R[dR]RC-OH) | 0.5 (≈ 0.202 µM) | 1 (≈ 0.403 µM) | 0.12 to 0.25 | 0.5 (≈ 0.202 µM) | 0.5 (≈ 0.202 µM) | 32 (≈ 12.9 µM) | 2 (≈ 0.807 µM) | 0.5 (≈ 0.202 µM) | 4 (≈ 1.61 µM) | 0.25 (≈ 0.101 µM) | 4 (≈ 1.61 µM) | >64 | 0.25 (≈ 0.101 µM) | 8 (≈ 3.23 µM) | 8 (≈ 3.23 µM) | 32 (≈ 12.9 µM) | 40 (≈ 16.1 µM) | 0.5 (≈ 0.202 µM) | 0.5 (≈ 0.202 µM) | 2 (≈ 0.807 µM) | EC50 (in vitro [10]; EC50 cytotoxicity in HepG2 cells (50% cell viability)): 39.6 µg/mL (≈ 16 µM); MIC50 against Candida spp. (Candida spp.): 0.5 µg/mL (≈ 0.202 µM); MIC90 against Candida spp. (Candida spp.): 2 µg/mL (≈ 0.807 µM); MIC Shigella sonnei [11]: 16 µg/mL (≈ 6.45 µM); MIC Klebsiella pneumoniae [12]: 64 µg/mL (≈ 25.8 µM)
N=C(N)NCCC[C@@H](N)C(=O)N[C@@H](CCCNC(=N)N)C(=O)N[C@H](CCCNC(=N)N)C(=O)NCCCCCCCCCC(=O)N[C@H](CCCNC(=N)N)C(=O)N[C@@H](CCCNC(=N)N)C(=O)N[C@H](CCCNC(=N)N)C(=O)NCCCCCCCC(=O)N[C@H](CCCNC(=N)N)C(=O)N[C@@H](CCCNC(=N)N)C(=O)N[C@H](CCCNC(=N)N)C(=O)N[C@@H](CCCNC(=N)N)C(=O)NCCCCCCCC(=O)N[C@H](CCCNC(=N)N)C(=O)N[C@@H](CCCNC(=N)N)C(=O)N[C@H](CCCNC(=N)N)C(=O)N[C@@H](CCCNC(=N)N)C(=O)NCCCCCCCC(=O)O [SEQ ID NO: 34, rRr-(Ada)-rRr-(Aoa)-rRrR-(Aoa)-rRrR-Aoa] (H-[dR]R[dR][NH(CH2)9CO][dR]R[dR][Aoc][dR]R[dR]R[Aoc][dR]R[dR]R[Aoc]-OH) | 8 (≈ 2.86 µM) | 1 (≈ 0.357 µM) | 0.25 to 2 | 0.5 (≈ 0.179 µM) | 1 (≈ 0.357 µM) | 8 (≈ 2.86 µM) | 4 (≈ 1.43 µM) | 0.5 (≈ 0.179 µM) | 8 (≈ 2.86 µM) | 0.5 (≈ 0.179 µM) | 2 (≈ 0.715 µM) | 32 (≈ 11.4 µM) | 0.5 (≈ 0.179 µM) | 4 (≈ 1.43 µM) | 16 (≈ 5.72 µM) | 16 (≈ 5.72 µM) | 162 (≈ 57.9 µM) | 2 (≈ 0.715 µM) | 0.5 (≈ 0.179 µM) | 0.5 (≈ 0.179 µM) | MIC Shigella sonnei [11]: 4 µg/mL (≈ 1.43 µM); MIC Klebsiella pneumoniae [12]: 8 µg/mL (≈ 2.86 µM)
N=C(N)NCCC[C@@H](N)C(=O)N[C@@H](CCCNC(=N)N)C(=O)N[C@H](CCCNC(=N)N)C(=O)N1CCC[C@H]1C(=O)N[C@H](CCCNC(=N)N)C(=O)N[C@@H](CCCNC(=N)N)C(=O)N[C@H](CCCNC(=N)N)C(=O)N1CCC[C@H]1C(=O)N[C@H](CCCNC(=N)N)C(=O)N[C@@H](CCCNC(=N)N)C(=O)N[C@H](CCCNC(=N)N)C(=O)N[C@@H](CCCNC(=N)N)C(=O)N1CCC[C@H]1C(=O)N[C@H](CCCNC(=N)N)C(=O)N[C@@H](CCCNC(=N)N)C(=O)N[C@H](CCCNC(=N)N)C(=O)N[C@@H](CCCNC(=N)N)C(N)=O [SEQ ID NO: 53, rRr-P-rRr-P-rRrR-P-rRrR-NH2] (H-[dR]R[dR]P[dR]R[dR]P[dR]R[dR]RP[dR]R[dR]R-NH2) | 0.5 (≈ 0.2 µM) |  | 0.25 (≈ 0.1 µM) | 0.25 (≈ 0.1 µM) | 0.5 (≈ 0.2 µM) |  |  | 0.25 (≈ 0.1 µM) |  | 0.5 (≈ 0.2 µM) |  |  | 0.25 (≈ 0.1 µM) |  |  |  | > 300 | 0.5 (≈ 0.2 µM) | 0.5 (≈ 0.2 µM) | 0.25 (≈ 0.1 µM) | MIC Range Scedosporium spp. (Scedosporium spp.): 0.25 µg/mL (≈ 0.1 µM); Tolerated dose (highest dose evaluated) [13]: 7.5 mg/kg/day; Clinical or hematological adverse effects ([13]; up to 7.5 mg/kg/day): No significant clinical or hematological adverse effects were observed; MTD ([14]; single IP dose, read-out: Tolerated single intraperitoneal dose): 10 to 15 mg/kg; MTD ([14]; single IV dose via tail vein, read-out: Tolerated single intravenous dose): 5 to 7.5 mg/kg; Kidney to Plasma Concentration Ratio Day 7 ([15]; 6 hrs post dose of 7.5 mg/kg IP once daily, Day 7, mean ± SD, n = 3): 916 ± 36; Kidney to Plasma Concentration Ratio Day 1 ([15]; 6 hrs post dose of 7.5 mg/kg IP, Day 1, mean ± SD, n = 3): 179 ± 106; Day 1 AUC ratio, kidney to plasma ([15]; IP 7.5 mg/kg, Day 1): 58.3; MIC Range Lomentospora prolificans (Lomentospora prolificans): 0.12 µg/mL (≈ 0.0481 µM); remaining at 2 h, 5 μM (in vitro [16]): ~100%; MIC Range Filamentous Fungi (Filamentous Fungi): 0.12 to 0.25 µg/mL; Activity at 24 h MIC50 against Candida spp. (Candida spp.; 24 h): 0.5 µg/mL; Activity at 24 h MIC90 against Candida spp. (Candida spp.; 24 h): 0.5 µg/mL; Activity at 48 h MIC50 against Candida spp. (Candida spp.; 48 h): 0.5 µg/mL; Activity at 48 h MIC90 against Candida spp. (Candida spp.; 48 h): 2 µg/mL; MIC Range Cryptococcus spp. (Cryptococcus spp.): 0.25 to 0.5 µg/mL; MIC Range Coccidioides species (Coccidioides species): 0.06 to 0.25 µg/mL
